Data from patent US20160242416A1, “FUNGICIDAL ISOXAZOLINE CARBINOLS” (E I DU PONT DE NEMOURS AND COMPANY, priority 2015, published 2016).

Columns and labels:
Botrytis cinerea = experiment: Test B: gray mold, preventive spray on tomato seedlings; conditions: 100 = 100% disease control; for Test B rating (% disease control): 10 ppm, gray mold on tomato, 0 = no control
Stagonospora nodorum = experiment: Test D: wheat glume blotch, preventive spray on wheat seedlings; conditions: 100 = 100% disease control; for Test D rating (% disease control): 10 ppm, wheat glume blotch, 0 = no control
[1] = tested on: Puccinia recondita f sp. tritici; experiment: Test F: wheat leaf rust, preventive spray on wheat seedlings; conditions: 100 = 100% disease control; for Test F rating (% disease control): 10 ppm, wheat leaf rust, 0 = no control
Description: General protocol for preparing test solutions for Tests A-G: the test compounds were first dissolved in acetone in an amount equal to 3% of the final volume and then suspended at the desired concentration (in ppm) in acetone and purified water (50/50 mix by volume) containing 250 ppm of the surfactant PEG400 (polyhydric alcohol esters). The resulting test suspensions were then used in Tests A-G. Compounds were sprayed at a concentration of 50 ppm (*) or 10 ppm to the point of run-off on the test plants, the equivalent of a rate of 200 g/ha or 40 g/ha, respectively.
The test solution was sprayed to the point of run-off on wheat seedlings. The following day the seedlings were inoculated with a spore suspension of Puccinia recondita f sp. tritici; (the causal agent of wheat leaf rust) and incubated in a saturated atmosphere at 20° C. for 24 h, and then moved to a growth chamber at 20° C. for 6 days, after which time visual disease ratings were made.
A dash (-) indicates no test results. Compounds with an asterisks (*) were applied at a concentration of 50 ppm, otherwise test solutions were applied at 10 ppm.

Zymoseptoria tritici = experiment: Test E: wheat leaf blotch, preventive spray on wheat seedlings; conditions: 100 = 100% disease control; for Test E rating (% disease control): 10 ppm, wheat leaf blotch, 0 = no control
[2] = tested on: Erysiphe graminis f sp. tritici; experiment: Test G: wheat powdery mildew, preventive spray on wheat seedlings; conditions: 100 = 100% disease control; for Test G rating (% disease control): 10 ppm, wheat powdery mildew, 0 = no control
[3] = 10 ppm test solution, 0 = no control relative to controls

SMILES	Test B rating (% disease control) (Botrytis cinerea)	Test D rating (% disease control) (Stagonospora nodorum)	Test F rating (% disease control) [1]	Test E rating (% disease control) (Zymoseptoria tritici)	Test G rating (% disease control) [2]	Test B disease control rating (Botrytis cinerea; [3])	Test D disease control rating (Stagonospora nodorum; [3])	Test F disease control rating [1, 3]	Test E disease control rating (Zymoseptoria tritici; [3])	Test G disease control rating [2, 3]
CC(C)(C)C(O)(Cn1cncn1)C1=NOC(Cn2cc(Br)cn2)C1 (single isomer, unassigned) [Compound 41]	0%	0%	41%	0%	90%	–	–	–	–	–
OC(Cn1cncn1)(C1=NOC(Cc2ccc(Br)cc2)C1)c1ccc(Cl)cc1 (single isomer, unassigned) [Compound 55]	0%	73%	99%	2%	99%	–	–	–	–	–
OC(Cn1cncn1)(C1=NOC(c2ccc(Cl)cc2)C1)c1cccc(Oc2ccccc2)c1 (single isomer, unassigned) [Compound 110]	0%	0%	21%	72%	48%	–	–	–	–	–
OC(Cn1cncn1)(C1=NOC(c2cnccn2)C1)c1ccc(Cl)cc1 (single isomer, unassigned) [Compound 157]	0%	0%	0%	0%	26%	–	–	–	–	–
OC(Cn1cncn1)(C1=NOC(c2ccc(F)cc2)C1)c1ccc(Cl)cc1 (single isomer, unassigned) [Compound 159]	0%	0%	0%	0%	97%	–	–	–	–	–
CCCCC(O)(Cn1cncn1)C1=NOC(c2ccc(Cl)cc2)C1 (single isomer, unassigned) [Compound 155]	0%	100%	100%	2%	100%	–	–	–	–	–
OC(Cn1cncn1)(C1=NOC(c2ccc(C(F)(F)F)cc2)C1)c1ccc(C(F)(F)F)cc1 (single isomer, unassigned) [Compound 153]	0%	0%	100%	93%	100%	–	–	–	–	–
OC(Cn1cncn1)(C1=NOC(Cc2ccc(Cl)cc2)C1)c1ccc(Cl)cc1 (single isomer, unassigned) [Compound 199]	0%	86%	100%	0%	100%	–	–	–	–	–
CC(C)(C)C(O)(Cn1cncn1)C1=NOC(COc2ccc(I)cc2)C1 (single isomer, unassigned) [Compound 184]	44%	100%	100%	94%	100%	–	–	–	–	–
CC(C)(C)C(O)(Cn1cncn1)C1=NOC(COc2cccc(Cl)c2)C1 (single isomer, unassigned) [Compound 230]	–	–	–	–	–	99%	100%	100%	8%	99%
OC(Cn1cncn1)(C1=NOC(c2cccc(Oc3ccccc3)c2)C1)c1ccc(Cl)cc1 (single isomer, unassigned) [Compound 177]	0%	51%	0%	0%	89%	–	–	–	–	–
OC(Cn1cncn1)(C1=NOC(c2ccc(Cl)cc2)C1)C12CC3CC(CC(C3)C1)C2 (single isomer, unassigned) [Compound 39]	0%	87%	0%	18%	73%	–	–	–	–	–
OC(Cn1cncn1)(C1=NOC(COC2CCCCC2)C1)c1ccc(Cl)cc1 (single isomer, unassigned) [Compound 90]	0%	59%	0%	0%	64%	–	–	–	–	–
OC(Cn1cncn1)(C1=NOC(CSc2ccccc2)C1)c1ccc(Cl)cc1 (single isomer, unassigned) [Compound 51]	16%	89%	0%	1%	81%	–	–	–	–	–
CC(C)(C)C(O)(Cn1cncn1)C1=NOC(COc2ccc(OCc3ccccc3)cc2)C1 (single isomer, unassigned) [Compound 71]	0%	0%	26%	1%	94%	–	–	–	–	–
OC(Cn1cncn1)(C1=NOC(c2ccc(Cl)cc2)C1)c1ccc(F)cc1 (single isomer, unassigned) [Compound 160]	75%	99%	100%	11%	100%	–	–	–	–	–
CC(C)(C)C(O)(Cn1cncn1)C1=NOC(c2cnccn2)C1 (single isomer, unassigned) [Compound 168]	11%	0%	0%	3%	35%	–	–	–	–	–
CC1(C(O)(Cn2cncn2)C2=NOC(c3ccc(Cl)cc3)C2)CC1 (single isomer, unassigned) [Compound 127]	0%	98%	98%	9%	98%	–	–	–	–	–
OC(Cn1cncn1)(C1=NOC(COc2ccc3c(c2)OCO3)C1)c1ccc(Cl)cc1 (single isomer, unassigned) [Compound 44]	0%	28%	0%	2%	64%	–	–	–	–	–
CC(C)(C)CC(O)(Cn1cncn1)C1=NOC(Cc2ccc(Cl)cc2)C1 (single isomer, unassigned) [Compound 207]	0%	99%	100%	44%	100%	–	–	–	–	–
OC(Cn1cncn1)(C1=NOC(c2ccc(Br)cc2)C1)c1ccc(Cl)cc1 (single isomer, unassigned) [Compound 179]	0%	0%	100%	0%	91%	–	–	–	–	–
CC(C)(C)C(O)(Cn1cncn1)C1=NOC(COc2ncc(Cl)cn2)C1 (single isomer, unassigned) [Compound 100]	0%	77%	79%	0%	92%	–	–	–	–	–
OC(Cn1cncn1)(C1=NOC(COc2ccc(Cl)cn2)C1)c1ccc(Cl)cc1 (single isomer, unassigned) [Compound 165]	0%	72%	99%	5%	100%	–	–	–	–	–
OC(Cn1cncn1)(C1=NOC(COC2CCCCC2)C1)c1ccc(Cl)cc1 (single isomer, unassigned) [Compound 89]	0%	0%	0%	0%	76%	–	–	–	–	–
OC(Cn1cncn1)(C1=NOC(COCc2ccccc2)C1)c1ccc(Cl)cc1 (single isomer, unassigned) [Compound 58]	0%	0%	0%	0%	68%	–	–	–	–	–
CCC(C)(C)C(O)(Cn1cncn1)C1=NOC(COc2ccc(Br)cc2)C1 (single isomer, unassigned) [Compound 11]	81%	100%	100%	88%	99%	–	–	–	–	–
CC(C)(C)C(O)(Cn1cncn1)C1=NOC(COC2CCCCC2)C1 (single isomer, unassigned) [Compound 92]	0%	10%	0%	3%	13%	–	–	–	–	–
CC(C)(C)C(O)(Cn1cncn1)C1=NOC(CCc2ccc(Cl)cc2)C1 (single isomer, unassigned) [Compound 16]	32%	100%	100%	8%	99%	–	–	–	–	–
